Several values for one entry are separate records, joined by “and”; a condition that tells them apart may be missing. Equal values may be shown once.
Tested on: 186277-243-T-J2-PDC complex spheroid viability
Experiment: Anticancer human tumor 186277-243-T-J2-PDC patient-derived colon adenocarcinoma cell line growth inhibition [POLQ]
Settings: for viability, T/C: stronger effect = lower value; active means viability on the fitted dose curve at most 10% of control; inactive means the rest
Description: Multicellular complex tumor spheroid response to Polymerase (POL) inhibitors (novobiocin, ART-558, RP6685) in combination with a variety of drugs and investigational agents in selected tumor cell lines
The POL inhibitors (novobiocin, ART-558, and RP6685) were evaluated both individually and in combination with standard of care and investigational anticancer small molecules within a complex spheroid model of solid tumors. . Complex spheroids include a stromal component modeled by human endothelial cells (HUVEC) and fibroblasts modeled by human mesenchymal stem cells (MSCs). The concentration ranges selected for each drug and investigational agent were based upon clinically achievable concentrations if the clinical Cmax of the agent was known.
Compounds. The drugs and investigational agents: novobiocin (NSC847541), ART-558 (NSC835418), RP-6685 (NSC848927), peposertib (NSC802822), ceralasertib (NSC780249), elimusertib (NSC800525), camonsertib (NSC841442), AZD-1390 (NSC803789), olaparib (NSC753686), talazoparib (NSC767125), rucaparib (NSC756644), sotorasib (NSC818433), MRTX-1133 (NSC836407), SN-38 (NSC673596), topotecan (NSC609699), epotoside (NSC141540), doxorubicin (NSC123127), gemcitabine (NSC613327), 5-fluorouracil (NSC19893), paclitaxel (NSC125973), vemurafenib (NSC761431), MSA-2 (NSC828583), SN-011 (NSC837082), adavosertib (NSC754352), prexasertib (NSC758257), carboplatin (NSC241240) and oxaliplatin (NSC266046), were obtained from the National Cancer Institute (NCI) Developmental Therapeutics Program Chemical Repository (21). The FDA-approved anticancer drug set is available from the Developmental Therapeutics Program at https://dtp.cancer.gov/organization/dscb/obtaining/. […] The stock solutions were prepared in dimethyl sulfoxide (DMSO, Sigma-Aldrich, St. Louis, MO, cat. D2650), except for the platinum compounds which were prepared in saline (Quality Biological, Gaithersburg, MD, cat. 114-055-101), at 800-fold the tested concentration and stored at -70 degrees C prior to their use. All drugs and investigational agents were tested over a range starting from a high concentration at or near the clinical Cmax and decreasing in half-log increments. If the clinical Cmax for an agent had not been determined, the highest concentration tested was 10 microM, except for SN-38, which was tested at a high concentration of 1 microM.
Cell Culture. All cells were maintained in an incubator at 37 degrees C and 5% CO2 with 95% humidity. The PDC lines were cultured according to standard operating procedures established by the NCI PDMR (https://pdmr.cancer.gov). Table 3 of the manuscript, lists the cell lines along with the number of the three cell types plated to form the mct-spheroids and media for tumor cell growth. After thawing, all PDC lines, except 997537-175-T-J1-PDC and 415267-285-R-J2-PDC, were cultured in Matrigel-coated flasks prepared with a working solution of 1X Ham's F-12 nutrient mix, without supplementation (Thermo Fisher Scientific, cat. 11765054), 100 U/mL penicillin-streptomycin (Thermo Fisher Scientific, cat. 15140122), and 2.5% Matrigel (Corning Inc., Corning, NY, cat. 354248) for the first three passages. The two PDC lines 997537-175-T-J1-PDC and 415267-285-R-J2-PDC were cultured on uncoated flasks. The 857933-349-R-J2-PDC line was cultured in 6C/Colon 1B media containing advanced DMEM/F-12 (Thermo Fisher Scientific, cat. 12634028), 10 mM HEPES (Thermo Fisher Scientific, cat. 15630080), 1X GlutaMAX supplement (Thermo Fisher Scientific, cat. 35050061), 0.1 mg/mL primocin (InvivoGen, San Diego, CA, cat. ant-pm-2), 10% defined fetal bovine serum, heat inactivated (HyClone Laboratories Inc., Logan, UT, cat. SH30070.03HI), 50% L-WRN conditioned media (ATCC, cat. CRL-3276), 1.25 mM N-Acetyl-L-cysteine (Sigma-Aldrich, cat. A9165), 10 mM nicotinamide (Sigma-Aldrich, cat. N0636), 1X B-27 supplement (Thermo Fisher Scientific, cat. 17504044), 1X N-2 supplement (Thermo Fisher Scientific, cat. […]
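Further: spheroids exposed to compounds for seven days.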

CCCS(=O)(=O)Nc1ccc(F)c(C(=O)c2c[nH]c3ncc(-c4ccc(Cl)cc4)cc23)c1F + COC1C(OC(N)=O)C(O)C(Oc2ccc3c(O)c(NC(=O)c4ccc(O)c(CC=C(C)C)c4)c(=O)oc3c2C)OC1(C)C
7.81 µM: IC50 (curve of first compound, second compound 1 µM)
9.15 µM: IC50 (curve of first compound, second compound 3.16 µM)
inactive: viability, T/C (second compound 0.0316 µM, first compound 0.0316 µM) 95% | viability, T/C (second compound 0.0316 µM, first compound 0.1 µM) 90% | viability, T/C (second compound 0.0316 µM, first compound 0.316 µM) 86.5% | viability, T/C (second compound 0.0316 µM, first compound 1 µM) 93.4% | viability, T/C (second compound 0.0316 µM, first compound 3.16 µM) 88.5% | viability, T/C (second compound 0.0316 µM, first compound 10 µM) 41.5% | viability, T/C (second compound 0.1 µM, first compound 0.0316 µM) 98.4% | viability, T/C (second compound 0.1 µM, first compound 0.1 µM) 76.9% | viability, T/C (second compound 0.1 µM, first compound 0.316 µM) 96.2% | viability, T/C (second compound 0.1 µM, first compound 1 µM) 79.7% | viability, T/C (second compound 0.1 µM, first compound 3.16 µM) 87.7% | viability, T/C (second compound 0.1 µM, first compound 10 µM) 39.9% | viability, T/C (second compound 0.316 µM, first compound 0.0316 µM) 91.4% | viability, T/C (second compound 0.316 µM, first compound 0.1 µM) 90.4% | viability, T/C (second compound 0.316 µM, first compound 0.316 µM) 89.7% | viability, T/C (second compound 0.316 µM, first compound 1 µM) 92.8% | viability, T/C (second compound 0.316 µM, first compound 3.16 µM) 101% | viability, T/C (second compound 0.316 µM, first compound 10 µM) 52% | viability, T/C (second compound 1 µM, first compound 0.0316 µM) 91.2% | viability, T/C (second compound 1 µM, first compound 0.1 µM) 97.2% | viability, T/C (second compound 1 µM, first compound 0.316 µM) 86.6% | viability, T/C (second compound 1 µM, first compound 1 µM) 86.8% | viability, T/C (second compound 1 µM, first compound 3.16 µM) 97.6% | viability, T/C (second compound 1 µM, first compound 10 µM) 38.5% | viability, T/C (second compound 3.16 µM, first compound 0.0316 µM) 92.2% | viability, T/C (second compound 3.16 µM, first compound 0.1 µM) 96.6% | viability, T/C (second compound 3.16 µM, first compound 0.316 µM) 93.5% | viability, T/C (second compound 3.16 µM, first compound 1 µM) 90.6% | viability, T/C (second compound 3.16 µM, first compound 3.16 µM) 88% | viability, T/C (second compound 3.16 µM, first compound 10 µM) 46.7% | viability, T/C (second compound 10 µM, first compound 0.0316 µM) 118% | viability, T/C (second compound 10 µM, first compound 0.1 µM) 89.7% | viability, T/C (second compound 10 µM, first compound 0.316 µM) 93.6% | viability, T/C (second compound 10 µM, first compound 1 µM) 94% | viability, T/C (second compound 10 µM, first compound 3.16 µM) 92% | viability, T/C (second compound 10 µM, first compound 10 µM) 50.3%
7.84 µM: IC50 (curve of first compound, second compound 0.1 µM)
8.12 µM: IC50 (curve of first compound, second compound 0.0316 µM)
> 10 µM: IC50 (curve of first compound, second compound 0.316 µM) | IC50 (curve of first compound, second compound 10 µM)

CC1COCCN1c1cc(C2(O)CC3CCC(C2)O3)c2cnn(-c3ccn[nH]3)c2n1 (stereo not drawn)
active: viability, T/C (compound 0.316 µM) 5.2% and 4.15% and 9.01% | viability, T/C (compound 1 µM) 4.03% and 3.64% and 7.13% | viability, T/C (compound 3.16 µM) 4.12% and 3.11% and 9.4% | viability, T/C (compound 10 µM) 4.18% and 3.19% and 7.62%
11% and 9.46% and 22.4%: viability, T/C (compound 0.1 µM)
0.0419 µM and 0.0414 µM and 0.0672 µM: IC50 (curve of compound)
inactive: viability, T/C (compound 0.0316 µM) 62.7% and 62.5% and 102%

CCc1cc2c(N3CCc4c(cc(Cn5ccnc5)cc4-c4cn(C)nc4C(F)(F)F)C3=O)cc(C)nc2c(OC)n1
inactive: viability, T/C (compound 0.0316 µM) 100% and 88.7% and 82.3% | viability, T/C (compound 0.1 µM) 110% and 93% and 96.3% | viability, T/C (compound 0.316 µM) 101% and 96.8% and 86.6% | viability, T/C (compound 1 µM) 104% and 106% and 86.8% | viability, T/C (compound 3.16 µM) 86% and 109% and 103% | viability, T/C (compound 10 µM) 76.3% and 99.6% and 88.1%
> 10 µM: IC50 (curve of compound)

CNCc1ccc(-c2[nH]c3cc(F)cc4c3c2CCNC4=O)cc1
inactive: viability, T/C (compound 0.0316 µM) 101% and 103% and 98.4% | viability, T/C (compound 0.1 µM) 108% and 122% and 93.3% | viability, T/C (compound 0.316 µM) 99.6% and 100% and 106% | viability, T/C (compound 1 µM) 97.1% and 93.2% and 108% | viability, T/C (compound 3.16 µM) 116% and 115% and 119% | viability, T/C (compound 10 µM) 93.5% and 116% and 103%
> 10 µM: IC50 (curve of compound)

Source: PubChem BioAssay AID1963854 (Molecular Pharmacology Branch, DTP, NCI, 2024)
